Assay results reported in patent US9926315B2, “Triazolopyridine compounds and methods for the treatment of cystic fibrosis” (Flatley Discovery Lab, LLC, priority 2014, dated 2018).

Target: T1, human ΔF508-CFTR (Homo sapiens, UniProt P13569, DEL508-508)
T1 construct: expressed in transfected cells
Experiment: CFTR-YFP High Throughput Assay (HTS YFP flux assay, corrector / potentiator protocols)
Format: cell-based
Conditions: FRT cells stably expressing human ΔF508-CFTR and YFP-H148Q/I152L; for Emax: normalized to positive control, read-out: Emax (% Efficacy, EMax normalized to the positive control)
Experimental: Assays for Detecting and Measuring the Effect of Compounds on dF508-CFTR Channels CFRT-YFP High Throughput Assay: Corrector Assay:
The following protocol is designed to selectively screen small molecule compounds for F508del CFTR corrector activities in the HTS YFP flux assay. In this protocol, the cells are incubated with testing compounds for 24 hours, washed with PBS, stimulated with forskolin and a standard potentiator, and read on a 384-well HTS plate reader, such as the Hamamatsu FDDD-6000.
(§1) YFP fluorescence intensity is acquired at high speed before and after iodide buffer is injected to the assay cells. Iodide enters the cells via active CFTR channels in the plasma membrane, and quenches the YFP fluorescence. The rate of fluorescence quenching is proportionally related to the total CFTR activities in the cell membrane. dF508-CFTR corrector accelerates YFP quenching by increasing the number of CFTR molecules in the testing cell plasma membrane.
This method was initially developed for bench top plate readers (Galietta, 2001), and was adapted to the HTS format (Sui, 2010).
Fisher Rat Thyroid (FRT) cells stably expressing both human ΔF508-CFTR and a halide-sensitive yellow fluorescent protein (YFP-H148Q/I152L 25, 22) (Galietta, 2001) were cultured on plastic surface in Coon's modified Ham's F12 medium supplemented with FBS 10%, L-glutamine 2 mM, penicillin 100 U/mL, and streptomycin 100 μg/mL. G418 (0.75-1.0 mg/mL) and zeocin (3.2 μg/mL) were used for selection of FRT cells expressing ΔF508-CFTR and YFP. For primary screening, FRT cells were plated into 384-well black wall, transparent bottom microtiter plates (Costar; Corning Inc.) at a cell density of 20, 000-40, 000 per well. Test compound was applied to the cells at varying concentrations ranging from 2 nM-[…] in either a 2-fold or 3-fold dilution series. Cells were incubated in a cell culture incubator at 37° C. with 5% CO2 for 24-26 h. Assay plates were washed with DPBS media (Thermo, cat#SH30028.02) to remove unbound cells and compound. Stimulation media (25 μL) containing 20 μM Forskolin & 30 μM P3 [6-(Ethyl-phenyl-sulfonyl)-4-oxo-1, 4-dihydro-quinoline-3-carboxylic acid 2-methoxy-benzylamide] in Hams F-12 coon's modified media was added to the plate wells and incubated at room temperature for 60-120 min. 25 μL of HEPES-PBS-I buffer (10 mM HEPES, 1 mM MgCl2, 3 mM KCl, 1 mM CaCl2, 150 mM NaI) was then added and fluorescence quench curves (Excitation 500 nm/Emission 540 nm; exposure 136 ms) were immediately recorded on an FDSS-6000 plate reader (Hamamatsu). Quench rates were derived from least squares fitting of the data (Sui, 2010).
The following protocol is designed to selectively screen small molecule compounds for F508del CFTR potentiator activities in the HTS YFP flux assay. In this protocol, the cells are incubated at 27° C. for 24 hours with homogeneously boosted dF508-CFTR expression in the cell membrane by the low temperature, washed with PBS, stimulated with forskolin, and read on a 384-well HTS plate reader, such as the Hamamatsu […].
as §1, with “dF508del-CFTR potentiators accelerate” for “dF508-CFTR corrector accelerates”, “increasing” for “increasing the number of”, “activities” for “molecules”
Fisher Rat Thyroid (FRT) cells stably expressing both human ΔF508-CFTR and a halide-sensitive yellow fluorescent protein (YFP-H148Q/I152L 25, 22) (Galietta, 2001) were cultured on plastic surface in Coon's modified Ham's F12 medium supplemented with FBS 10%, L-glutamine 2 mM, penicillin 100 U/mL, and streptomycin 100 μg/mL. G418 (0.75-1.0 mg/mL) and zeocin (3.2 μg/mL) were used for selection of FRT cells expressing ΔF508-CFTR and YFP. […]

T1 sequence (P13569 with tags, fused parts or gaps DEL508-508): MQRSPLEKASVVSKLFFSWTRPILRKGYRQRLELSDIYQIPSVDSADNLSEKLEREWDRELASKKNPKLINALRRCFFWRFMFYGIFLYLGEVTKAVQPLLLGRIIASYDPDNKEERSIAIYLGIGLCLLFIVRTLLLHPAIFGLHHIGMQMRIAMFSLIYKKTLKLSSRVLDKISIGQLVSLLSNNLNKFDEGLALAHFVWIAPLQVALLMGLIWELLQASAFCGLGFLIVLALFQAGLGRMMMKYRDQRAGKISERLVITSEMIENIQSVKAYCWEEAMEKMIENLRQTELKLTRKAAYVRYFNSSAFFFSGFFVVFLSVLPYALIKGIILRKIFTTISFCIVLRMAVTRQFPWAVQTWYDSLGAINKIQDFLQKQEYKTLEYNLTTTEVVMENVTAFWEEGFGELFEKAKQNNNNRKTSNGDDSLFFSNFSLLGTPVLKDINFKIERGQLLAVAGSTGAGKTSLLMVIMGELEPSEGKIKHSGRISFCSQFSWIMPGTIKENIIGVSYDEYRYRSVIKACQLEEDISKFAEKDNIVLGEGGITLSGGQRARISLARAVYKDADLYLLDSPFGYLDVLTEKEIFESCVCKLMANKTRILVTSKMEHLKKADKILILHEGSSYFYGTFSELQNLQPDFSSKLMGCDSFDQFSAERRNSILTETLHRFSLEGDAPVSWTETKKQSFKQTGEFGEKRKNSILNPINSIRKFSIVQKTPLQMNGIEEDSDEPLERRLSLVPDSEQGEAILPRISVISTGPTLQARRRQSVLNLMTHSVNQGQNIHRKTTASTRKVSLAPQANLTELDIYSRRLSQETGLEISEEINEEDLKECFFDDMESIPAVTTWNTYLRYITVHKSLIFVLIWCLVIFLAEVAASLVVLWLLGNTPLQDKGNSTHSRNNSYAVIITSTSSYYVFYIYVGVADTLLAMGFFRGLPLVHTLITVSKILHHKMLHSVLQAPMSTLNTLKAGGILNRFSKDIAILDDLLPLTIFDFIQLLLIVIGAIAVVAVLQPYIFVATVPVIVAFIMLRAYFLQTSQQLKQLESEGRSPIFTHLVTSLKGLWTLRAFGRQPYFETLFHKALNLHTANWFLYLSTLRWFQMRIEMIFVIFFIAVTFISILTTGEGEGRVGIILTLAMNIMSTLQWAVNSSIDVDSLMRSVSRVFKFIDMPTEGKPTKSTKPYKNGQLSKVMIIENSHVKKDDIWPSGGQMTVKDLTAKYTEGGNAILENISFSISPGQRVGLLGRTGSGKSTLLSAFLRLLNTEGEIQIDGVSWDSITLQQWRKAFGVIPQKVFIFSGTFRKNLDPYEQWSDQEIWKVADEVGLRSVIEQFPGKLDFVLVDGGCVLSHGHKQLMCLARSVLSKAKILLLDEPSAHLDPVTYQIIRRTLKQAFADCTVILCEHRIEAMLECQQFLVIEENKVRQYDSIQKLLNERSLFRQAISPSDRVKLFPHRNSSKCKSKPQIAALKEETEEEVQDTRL

Compound	EC50	Emax
CCOC(=O)OC(CNc1nnc2ccc(S(=O)(=O)c3ccccc3)cn12)C1CCCCC1 (stereo not drawn) [Example 77]	< 1000 nM	> 80%
CC(C)(C)C(=O)OC(CNc1nnc2ccc(S(=O)(=O)c3ccccc3)cn12)C1CCCCC1 (stereo not drawn) [Example 74]	< 1000 nM	> 80%
O=S(=O)(c1ccccc1)c1ccc2nnc(NC[C@H](O)C3CCCCC3)n2c1 [Example 69]	< 1000 nM	> 80%
O=S(=O)(c1ccccc1)c1ccc2nc(NC[C@@H](O)c3ccccc3)nn2c1 [Example 85]	< 1000 nM	> 80%
O=S(=O)(c1ccccc1)c1ccc2nnc(NCC(O)COc3ccccc3)n2c1 (stereo not drawn) [Example 67]	< 1000 nM	> 80%
CCN(CC)S(=O)(=O)c1ccc2nnc(NC(=O)c3ccccc3)n2c1 [Example 12]	1000 to 10000 nM	40 to 80%
O=S(=O)(c1ccccc1)c1ccc2nnc(NCC(O)C3CCCCCC3)n2c1 (stereo not drawn) [Example 78]	< 1000 nM	> 80%
O=C(CNc1nc2ccc(S(=O)(=O)c3ccccc3)cn2n1)C1CCCCC1 [Example 87]	< 1000 nM	> 80%
O=S(=O)(c1ccccc1)c1ccc2nc(NCCC3CCCCC3)nn2c1 [Example 88]	< 1000 nM	> 80%
O=S(=O)(c1ccccc1)c1ccc2nnc(NC3Cc4ccccc4C3)n2c1 [Example 64]	< 1000 nM	> 80%
CCN(CC)S(=O)(=O)c1ccc2nnc(NC3Cc4ccccc4C3)n2c1 [Example 4]	< 1000 nM	> 80%
COc1ccc(S(=O)(=O)Nc2ccc3nnc(NCc4ccccc4)n3c2)cc1 [Example 59, N-(3-(Benzylamino)-[1,2,4]triazolo[4,3-a]pyridine-6-yl)-4-methoxybenzenesulfonamide]	< 1000 nM	40 to 80%
CN1CCC(c2ccc(CNc3nc4ccc(S(=O)(=O)c5ccccc5)cn4n3)cc2)CC1 [Example 93]	< 1000 nM	> 80%
C[C@@H](Nc1nc2ccc(S(=O)(=O)c3ccccc3)cn2n1)c1ccccc1 [Example 81]	< 1000 nM	> 80%
O=S(=O)(c1ccc2nc(NCc3ccc4c(c3)OCO4)nn2c1)N1CCCCC1 [Example 101, N-(benzo[d][1,3]dioxol-5-ylmethyl)-6-(piperidin-1-ylsulfonyl)-[1,2,4]-triazolo[1,5-a]pyridin-2-amine]	1000 to 10000 nM	> 80%
O=C(c1ccc(CNc2nc3ccc(S(=O)(=O)c4ccccc4)cn3n2)cc1)N1CCC1 [Example 91]	< 1000 nM	40 to 80%
CCN(CC)S(=O)(=O)c1ccc2nnc(N[C@@H](Cc3ccccc3)C(=O)N3CCCCC3)n2c1 [Example 53]	< 1000 nM	> 80%
CCN(CC)S(=O)(=O)c1ccc2nnc(N(C)Cc3ccccc3)n2c1 [Example 3]	< 1000 nM	40 to 80%
C[C@@H](Nc1nnc2ccc(S(=O)(=O)c3ccc(Cl)cc3)cn12)c1ccccc1 [Example 72]	1000 to 10000 nM	> 80%
O=S(=O)(c1ccccc1)c1ccc2nc(NCc3cccc(C(F)(F)F)c3)nn2c1 [Example 82]	< 1000 nM	> 80%
O=S(=O)(c1ccccc1)c1ccc2nc(NCc3ccc(-c4ccccn4)cc3)nn2c1 [Example 94, 6-(phenylsulfonyl)-N-(4-(pyridin-2-yl)benzyl)-[1,2,4]triazolo[1,5-a]pyridin-2-amine]	< 1000 nM	> 80%
c1ccc(-c2ccc3nc(Nc4ccc(-c5ccccn5)cc4)nn3c2)cc1 [Example 100, 6-phenyl-N-(4-(pyridin-2-yl)phenyl)-[1,2,4]triazolo[1,5-a]pyridin-2-amine]	1000 to 10000 nM	40 to 80%
O=S(=O)(c1ccccc1)c1ccc2nc(NCC(O)C3CCCCC3)nn2c1 (stereo not drawn) [Example 84]	1000 to 10000 nM	> 80%
COc1cccc(S(=O)(=O)c2ccc3nnc(N[C@H](C)c4ccccc4)n3c2)c1 [Example 71]	1000 to 10000 nM	> 80%
CCN(CC)S(=O)(=O)c1ccc2nnc(N[C@@H]3CCc4ccccc43)n2c1 [Example 46]	< 1000 nM	40 to 80%

Second part, the compound after the results:

EC50	Emax	Compound
< 1000 nM	> 80%	CCN(CC)S(=O)(=O)c1ccc2nnc(NCc3ccc(C(F)(F)F)cc3)n2c1 [Example 48]
< 1000 nM	10 to 40%	CCN(CC)S(=O)(=O)c1ccc2nnc(NCc3ccc(OC(F)(F)F)cc3)n2c1 [Example 55]
< 1000 nM	> 80%	CCN(CC)S(=O)(=O)c1ccc2nnc(NCc3ccc(C)cc3)n2c1 [Example 9]
< 1000 nM	> 80%	CCN(CC)S(=O)(=O)c1ccc2nnc(N[C@H](C)c3ccccc3)n2c1 [Example 20]
< 1000 nM	> 80%	CCN(CC)S(=O)(=O)c1ccn2c(NCC(C)(C)C)nnc2c1 [Example 60, N,N-Diethyl-3-(neopentylamino)-[1,2,4]triazolo[4,3-a]pyridine-7-sulfonamide]
< 1000 nM	> 80%	CCN(CC)S(=O)(=O)c1ccc2nnc(NC3CCCCC3)n2c1 [Example 11]
< 1000 nM	> 80%	CCN(CC)S(=O)(=O)c1ccc2nnc(N[C@H](C)c3ccc(F)cc3)n2c1 [Example 41]
< 1000 nM	> 80%	CCN(CC)S(=O)(=O)c1ccc2nnc(NCc3ccc(OC(C)C)cc3)n2c1 [Example 36]
1000 to 10000 nM	40 to 80%	CCN(CC)S(=O)(=O)c1ccc2nnc(NCC(C)(C)O)n2c1 [Example 18]
< 1000 nM	> 80%	CCN(CC)S(=O)(=O)c1ccc2nnc(N[C@@H](c3ccccc3)C(C)C)n2c1 [Example 51]
< 1000 nM	> 80%	CCN(CC)S(=O)(=O)c1ccc2nnc(NCC3CC3)n2c1 [Example 8]
< 1000 nM	> 80%	CCN(CC)S(=O)(=O)c1ccc2nnc(N[C@@H]3C[C@H]4CC[C@@H]3C4)n2c1 [Example 33]
< 1000 nM	> 80%	CCN(CC)S(=O)(=O)c1ccc2nnc(NCc3ccc(F)cc3)n2c1 [Example 49]
1000 to 10000 nM	10 to 40%	CCN(CC)S(=O)(=O)c1ccc2nnc(NCc3ccccc3)n2c1C [Example 61, 3-(Benzylamino)-N,N-diethyl-5-methyl-[1,2,4]triazolo[4,3-a]pyridine-6-sulfonamide]
< 1000 nM	> 80%	CCN(CC)S(=O)(=O)c1ccc2nnc(NC(C)CC(C)C)n2c1 (stereo not drawn) [Example 42]
> 10000 nM	40 to 80%	CCN(CC)S(=O)(=O)c1ccc2nnc(NCc3cccnc3)n2c1 [Example 15]
< 1000 nM	40 to 80%	CCN(CC)S(=O)(=O)c1ccc2nnc(NCc3ccccc3C)n2c1 [Example 13]
< 1000 nM	> 80%	CCN(CC)S(=O)(=O)c1ccc2nnc(N[C@@H](C)c3ccccc3)n2c1 [Example 21]
< 1000 nM	> 80%	CCN(CC)S(=O)(=O)c1ccc2nnc(N[C@@H](C)c3ccc(C)cc3)n2c1 [Example 38]
< 1000 nM	> 80%	CCN(CC)S(=O)(=O)c1ccc2nnc(N[C@H](C)c3ccc(C)cc3)n2c1 [Example 35]
